Our source for the MIC50, MIC90 and Activity values is ChEMBL document CHEMBL1629662, “Antimicrobial activity of prulifloxacin tested against a worldwide collection of gastroenteritis-producing pathogens, including those causing traveler's diarrhea” (2009).

Type in all cases: functional
Experiment [1] has as its system Campylobacter coli. Nature of the experiment: Antibacterial activity against Campylobacter coli by broth microdilution method. Background: Broth dilution looks for growth in wells or tubes with falling amounts of substance.
Experiment [2] deals with Campylobacter jejuni. Nature of the experiment: Antibacterial activity against Campylobacter jejuni by broth microdilution method.
For experiment [3], the system named is Campylobacter jejuni. Nature of the experiment: Antibacterial activity against Campylobacter jejuni assessed as percent susceptible isolates by broth microdilution method. The conditions noted are these: pooled result: one value given for 2 cell lines, strains, targets or settings.
For experiment [4], the system named is Campylobacter jejuni. Nature of the experiment: Antibacterial activity against Campylobacter jejuni assessed as percent resistant isolates by broth microdilution method. The conditions noted are these: pooled result: one value given for 2 cell lines, strains, targets or settings.

In brackets after ≈: the same amount, converted by molar mass.

The MIC50 is an inhibitory concentration at the 50% level, which refers to growth in some studies and to a panel of isolates in others. The low end stands for greater potency, the high end for weaker potency. In general, MIC90 refers to the lowest concentration that inhibits either 90% of growth or 90% of the strains tested, depending on the study. A higher MIC90 goes with weaker potency. For the compound `CC[C@H]1OC(=O)[C@H](C)[C@@H](O[C@H]2C[C@@](C)(OC)[C@@H](O)[C@H](C)O2)[C@H](C)[C@@H](O[C@@H]2O[C@H](C)C[C@H](N(C)C)[C@H]2O)[C@](C)(O)C[C@@H](C)C(=O)[C@H](C)[C@@H](O)[C@]1(C)O` [ERYTHROMYCIN], the MIC50 in experiment [1] and in experiment [2] was 0.25 µg/mL (≈ 0.341 µM) each time. The MIC90 in experiment [1] and in experiment [2] was 0.5 µg/mL (≈ 0.681 µM) throughout. For the same compound, the Activity was 100% in experiment [3] and 0% in experiment [4].
